Results as given in the supplement of paper PMC10307832.

How the values were obtained:
Test in all cases: relative viability (nuclei count vs DMSO), 5 days (fraction); higher = more cells survive
Wnt-C59 + Crizotinib = compound: CC1=NC=CC(=C1)C2=CC=C(C=C2)CC(=O)NC3=CC=C(C=C3)C4=CN=CC=C4 [Wnt-C59] + C[C@@H](Oc1cc(-c2cnn(C3CCNCC3)c2)cnc1N)c1c(Cl)ccc(F)c1Cl [Crizotinib] (partner 1 µM)
How it was run: (§1)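 Nuclei were stained with Hoechst during a one-step fixation (final 0.05% Triton X-100, 1% formaldehyde, 1 ug/ml Hoechst) carried out 5 days after dosing, then counted on 4× images. The cells, lung cancer lines in 1536-well plates, had been dosed by pin tool the day after seeding with one drug alone or a fixed anchor-drug dose plus five library-drug doses (not always all listed) in √10 steps. Relative viability is the nuclei count in treated wells divided by that in vehicle wells, and each value is the median of duplicate plates.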

Wnt-C59 + Linsitinib = compound: CC1=NC=CC(=C1)C2=CC=C(C=C2)CC(=O)NC3=CC=C(C=C3)C4=CN=CC=C4 [Wnt-C59] + C[C@]1(O)C[C@@H](c2nc(-c3ccc4ccc(-c5ccccc5)nc4c3)c3c(N)nccn32)C1 [Linsitinib] (partner 1 µM)
How it was run: as §1

Wnt-C59 + Lapatinib = compound: CC1=NC=CC(=C1)C2=CC=C(C=C2)CC(=O)NC3=CC=C(C=C3)C4=CN=CC=C4 [Wnt-C59] + CS(=O)(=O)CCNCc1ccc(-c2ccc3ncnc(Nc4ccc(OCc5cccc(F)c5)c(Cl)c4)c3c2)o1 [Lapatinib] (partner 2 µM)
How it was run: as §1

Wnt-C59 + Tozasertib = compound: CC1=NC=CC(=C1)C2=CC=C(C=C2)CC(=O)NC3=CC=C(C=C3)C4=CN=CC=C4 [Wnt-C59] + Cc1cc(Nc2cc(N3CCN(C)CC3)nc(Sc3ccc(NC(=O)C4CC4)cc3)n2)n[nH]1 [Tozasertib] (partner 0.1 µM)
How it was run: as §1

Wnt-C59 + Alpelisib = compound: CC1=NC=CC(=C1)C2=CC=C(C=C2)CC(=O)NC3=CC=C(C=C3)C4=CN=CC=C4 [Wnt-C59] + Cc1nc(NC(=O)N2CCC[C@H]2C(N)=O)sc1-c1ccnc(C(C)(C)C(F)(F)F)c1 [Alpelisib] (partner 2 µM)
How it was run: as §1

Cell Line	relative viability (Wnt-C59 + Crizotinib; first compound 0.001 µM)	relative viability (Wnt-C59 + Crizotinib; first compound 0.01 µM)	relative viability (Wnt-C59 + Crizotinib; first compound 0.03162 µM)	relative viability (Wnt-C59 + Crizotinib; first compound 0.1 µM)	relative viability (Wnt-C59 + Linsitinib; first compound 0.001 µM)	relative viability (Wnt-C59 + Linsitinib; first compound 0.01 µM)	relative viability (Wnt-C59 + Linsitinib; first compound 0.03162 µM)	relative viability (Wnt-C59 + Linsitinib; first compound 0.1 µM)	relative viability (Wnt-C59 + Lapatinib; first compound 0.001 µM)	relative viability (Wnt-C59 + Lapatinib; first compound 0.01 µM)	relative viability (Wnt-C59 + Lapatinib; first compound 0.03162 µM)	relative viability (Wnt-C59 + Lapatinib; first compound 0.1 µM)	relative viability (Wnt-C59 + Tozasertib; first compound 0.001 µM)	relative viability (Wnt-C59 + Tozasertib; first compound 0.01 µM)	relative viability (Wnt-C59 + Tozasertib; first compound 0.03162 µM)	relative viability (Wnt-C59 + Tozasertib; first compound 0.1 µM)	relative viability (Wnt-C59 + Alpelisib; first compound 0.001 µM)	relative viability (Wnt-C59 + Alpelisib; first compound 0.01 µM)	relative viability (Wnt-C59 + Alpelisib; first compound 0.03162 µM)	relative viability (Wnt-C59 + Alpelisib; first compound 0.1 µM)
NCI-H596	0.972	1	1.32	0.932	1.04	0.954	1.16	1.1	1.07	1.1	1.2	1.13	0.943	0.778	0.882	0.905	0.528	0.396	0.615	0.475
LXF-289	0.822	0.768	0.817	0.78	0.99	0.933	1	0.918	0.925	0.903	0.891	0.849	0.22	0.221	0.182	0.194	1.05	1.03	1.04	1.02
NCI-H1755	0.899	0.826	0.827	0.839	0.979	0.954	0.983	0.984	1.01	0.98	1.03	0.952	0.647	0.528	0.646	0.534	0.932	0.891	0.907	0.908
NCI-H2405	0.833	0.806	0.812	0.779	1.03	–	0.887	0.875	1.02	–	0.968	0.95	0.729	0.672	0.778	0.699	0.89	–	0.646	0.789
HARA	1.04	0.642	1.15	1.06	1.02	0.865	1.16	0.899	0.649	0.746	0.876	0.751	0.103	0.135	0.151	0.088	0.773	0.645	0.959	0.787
H3255	0.86	0.959	0.942	0.751	1.01	0.962	1.02	0.866	0.278	0.283	0.259	0.242	0.715	0.616	0.626	0.63	0.798	0.556	0.68	0.596
NCI-H322M	0.819	0.937	0.877	0.841	1.07	0.775	0.758	0.685	0.638	0.585	0.594	0.538	0.444	0.432	0.454	0.427	0.747	0.715	0.718	0.478
NCI-H1666	0.989	1.05	0.902	1.1	0.941	0.682	0.885	0.874	0.675	0.516	0.659	0.75	0.649	0.674	0.566	0.576	0.874	0.895	0.974	0.942
HCC-44	0.878	0.78	0.753	0.757	0.745	0.641	0.665	0.644	1.01	1.03	1.01	1.03	1.12	0.909	0.976	0.864	0.792	0.817	0.865	0.892
HCC-366	0.45	0.541	0.605	0.472	0.697	0.582	0.717	0.595	1.16	0.999	1.07	0.976	0.156	0.102	0.111	0.124	0.453	0.287	0.412	0.297
LU99A	0.577	0.538	0.622	0.531	0.554	0.508	0.594	0.495	0.905	0.999	1.07	0.97	0.256	0.276	0.272	0.262	0.496	0.566	0.604	0.538
NCI-H460	0.996	0.961	0.878	0.689	0.789	0.809	0.869	0.7	0.863	0.999	1.11	0.889	0.465	0.0488	0.555	0.48	0.45	0.46	0.472	0.413
RERF-LC-KJ	0.868	0.764	0.878	0.852	0.914	0.79	0.908	0.85	0.892	0.836	0.925	0.797	0.48	0.561	0.515	0.481	0.743	0.764	0.853	0.883
NCI-H2087	0.737	0.884	0.792	0.778	1.04	0.956	0.958	0.858	1.01	1.04	1.08	0.908	0.274	0.235	0.255	0.291	1.18	1.05	0.996	1.05
COR-L23	0.653	0.567	0.637	0.67	1	0.893	1.08	0.837	1.04	0.851	1.05	0.797	0.202	0.237	0.233	0.19	0.776	0.752	0.775	0.725
NCI-H2009	0.941	1.11	1.06	1.03	1.17	1.15	1.19	1.12	0.993	1.04	0.903	0.881	0.805	0.798	0.72	0.726	1.15	1.16	1.14	1.18

Cell Line	relative viability (Wnt-C59 + Crizotinib; first compound 0.001 µM)	relative viability (Wnt-C59 + Crizotinib; first compound 0.01 µM)	relative viability (Wnt-C59 + Crizotinib; first compound 0.03162 µM)	relative viability (Wnt-C59 + Crizotinib; first compound 0.1 µM)	relative viability (Wnt-C59 + Linsitinib; first compound 0.001 µM)	relative viability (Wnt-C59 + Linsitinib; first compound 0.01 µM)	relative viability (Wnt-C59 + Linsitinib; first compound 0.03162 µM)	relative viability (Wnt-C59 + Linsitinib; first compound 0.1 µM)	relative viability (Wnt-C59 + Lapatinib; first compound 0.001 µM)	relative viability (Wnt-C59 + Lapatinib; first compound 0.01 µM)	relative viability (Wnt-C59 + Lapatinib; first compound 0.03162 µM)	relative viability (Wnt-C59 + Lapatinib; first compound 0.1 µM)	relative viability (Wnt-C59 + Tozasertib; first compound 0.001 µM)	relative viability (Wnt-C59 + Tozasertib; first compound 0.01 µM)	relative viability (Wnt-C59 + Tozasertib; first compound 0.03162 µM)	relative viability (Wnt-C59 + Tozasertib; first compound 0.1 µM)	relative viability (Wnt-C59 + Alpelisib; first compound 0.001 µM)	relative viability (Wnt-C59 + Alpelisib; first compound 0.01 µM)	relative viability (Wnt-C59 + Alpelisib; first compound 0.03162 µM)	relative viability (Wnt-C59 + Alpelisib; first compound 0.1 µM)
NCI-H1944	1.04	0.971	1.18	1.07	1.13	1.11	1.26	1.12	0.745	0.795	0.866	0.769	0.237	0.261	0.263	0.246	0.767	0.755	0.785	0.755
NCI-H838	0.839	0.826	0.902	0.916	1.07	0.997	1.01	1.04	0.901	0.924	1.07	1.08	0.332	0.247	0.293	0.263	1.06	0.98	1.13	1.02
NCI-H2126	0.994	0.998	0.987	1.01	0.755	0.7	0.723	0.701	0.78	0.731	0.792	0.772	0.882	0.876	0.874	0.82	0.742	0.703	0.788	0.723
NCI-H1975	0.98	0.936	1.04	0.948	1.01	0.88	1.01	0.922	0.816	0.863	0.934	0.882	0.789	0.705	0.776	0.744	0.67	0.591	0.707	0.704
NCI-H727	0.843	0.779	0.944	0.682	0.399	0.277	0.269	0.258	0.891	0.761	0.787	0.966	0.702	0.547	0.586	0.565	0.584	0.546	0.741	0.421
NCI-H650	0.699	0.75	0.874	0.691	0.919	0.916	0.828	0.926	0.532	0.846	0.895	0.873	0.734	0.748	0.802	0.729	1.01	1.24	1.23	1.11
A-427	0.982	0.798	0.962	0.905	1.12	1.05	1.14	1.06	1.04	1.01	1.09	1.11	0.217	0.183	0.211	0.243	1.07	1	1.14	1.08
NCI-H1993	0.932	0.981	0.878	1.9	0.703	0.811	0.699	0.799	0.734	0.832	0.852	0.825	0.607	–	0.515	0.633	0.763	0.642	0.682	0.708
CAL-12T	0.699	0.654	0.89	0.555	0.759	0.752	0.776	0.766	0.614	–	0.761	0.625	0.47	0.335	0.349	0.263	1.25	1.32	1.31	1.1
NCI-H1437	0.996	0.867	0.988	0.89	1.01	1.01	1.04	1.01	0.851	0.8	0.89	0.828	0.426	0.428	0.417	0.384	1.07	0.917	1.09	0.946
BEN	0.897	0.84	1.02	0.923	0.915	0.948	1.02	0.88	0.825	0.804	0.736	0.641	0.478	0.474	0.497	0.501	1.11	0.993	1.37	0.957
LOU-NH91	0.732	0.65	0.738	0.766	1.07	0.748	0.854	0.899	0.76	0.709	0.768	0.771	0.775	0.597	0.695	0.682	0.744	0.597	0.683	0.79
PC-3 [JPC-3]	0.979	1.01	1.09	0.965	0.964	0.942	1.01	0.961	0.465	0.459	0.447	0.496	0.935	0.922	0.984	0.911	1.02	1.05	1.04	1.07
NCI-H1355	1.01	1.05	1.06	0.966	0.875	0.779	0.881	0.673	1.04	0.922	1.05	0.842	0.599	0.581	0.564	0.558	1.01	0.746	0.801	0.733
NCI-H520	0.915	0.83	0.831	0.716	0.944	0.912	1.1	0.843	0.809	0.894	0.878	0.827	0.434	0.54	0.496	0.43	0.932	0.969	1.06	0.785
